Experimental findings from patent US11370785B2, “Multicyclic compounds as farnesoid X receptor modulators” (BRISTOL-MYERS SQUIBB COMPANY, priority 2017, dated 2022) are described below.

One assay addresses T1, human FXR (Homo sapiens, UniProt Q96RI1).
T1 construct: expressed in transfected cells; host or cells: HEK293 cells stably carrying a 5xGal4-response-element firefly luciferase reporter, transiently transfected with the pcDNA3.1-Gal4-FXR plasmid
T1 sequence (Q96RI1 262-486 limits assumed): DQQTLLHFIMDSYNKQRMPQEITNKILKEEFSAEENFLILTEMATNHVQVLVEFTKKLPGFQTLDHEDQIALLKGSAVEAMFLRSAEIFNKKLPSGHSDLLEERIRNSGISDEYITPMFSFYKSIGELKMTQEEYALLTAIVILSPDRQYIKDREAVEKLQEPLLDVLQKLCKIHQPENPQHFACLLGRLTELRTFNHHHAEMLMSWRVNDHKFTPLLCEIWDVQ
The assay is described as follows: transient human FXR/Gal4-luciferase reporter assay. The assay is classed as cell-based. Conditions: Gal4-hFXR reporter in HEK293 cells; read-out: HLE GAL-FXR EC50. As for the experimental part:
The exemplified compounds of the present invention were tested in the transient human FXR/Gal4-luciferase reporter assay, and assay results were reported in Table 1 together with other analytical data.
A Gal4-hFXR fusion construct reporter system was used as the primary assay to characterize compound activity. A construct including 5 copies of the Gal4 promoter response element upstream of a firefly luciferase reporter cDNA was stably expressed in HEK293 cells. This reporter cell line was maintained in Dulbecco's Modified Eagle's medium (DMEM; Gibco) supplemented with 1% penicillin-streptomycin (P/S) solution, 500 μg/mL Zeocin and 10% charcoal/dextran-treated fetal bovine serum (cs-FBS) at 37° C. in a humidified 5% CO2 atmosphere. Another plasmid was constructed in which the human cytomegalovirus promoter in the pcDNA3.1 vector directs the expression of the cDNA encoding a fusion protein comprised of the DNA binding domain from the Gal4 transcription factor fused to the ligand binding domain from human FXR.
The day prior to transfection, the reporter cells in culture are detached from the plate with trypsin and plated into a T75 flask at a sufficient density to achieve approximately 90% confluence the next morning. The transfection reagents are prepared by separately diluting 25 μg of the pcDNA3.1-Gal4-FXR plasmid into 1.87 mL of Opti-MEM (Thermo-Fisher), and 40 μL of Lipofectamine 2000 (Thermo-Fisher) into 1.87 mL of Opti-MEM, and then adding the diluted DNA solution into the diluted Lipofectamine 2000 solution and incubating at room temperature for 15-20 minutes. The mixture is further diluted with 10 mL of a solution comprised of DMEM, 10% cs-FBS, and 1% P/S immediately prior to transferring to the cells. The maintenance culture media is aspirated from the cells and the final transfection mixture is added before the cells are incubated overnight at 37° C. in a humidified 5% CO2 atmosphere. This protocol can be scaled up, and the transiently transfected cells can be cryopreserved in an assay-ready format.
For compound testing, 100 nL of the compounds (serial dilutions in DMSO) are dispensed with an Echo acoustic dispenser (Labcyte) into the wells of a Corning/Costar clear bottom 384-well white plate. The transfected cells are harvested, counted, and diluted such that 10-25,000 cells in 25 μL are plated into each well of the 384-well compound assay plate. The compound-treated cells are incubated overnight at 37° C. in a humidified 5% CO2 atmosphere. The next morning 25 μL of Steady-Glo (Promega) are added to each well of the plate, the mixture is incubated for 15 min. with shaking, and luminescence is measured on an Envision (Perkin Elmer) plate reader. Background counts from cells treated with DMSO alone are subtracted from all raw counts, and the corrected values are converted to a percentage of the control response attained with 8 μM GW-4064.
For orientation: In a reporter assay the amount or activity of a reporter protein is the signal.
Consider `Clc1cccc(Cl)c1-c1noc(C2CC2)c1C=C1CC2(CCN(c3ccc(-c4nn[nH]n4)cc3)CC2)C1` [Example 50, 4-((7-(4-(2H-tetrazol-5-yl)phenyl)-7-azaspiro[3.5]nonan-2-ylidene)methyl)-5-cyclopropyl-3-(2,6-dichlorophenyl)isoxazole], for which the EC50 (usually the midpoint of the concentration-response curve) was 4.33 µM.
Same read-out and setting: in the case of `O=C(NS(=O)(=O)C1CC1)c1cc(C(F)(F)F)c2cc(N3CCC4(CC3)CC(Cc3c(-c5ccccc5C(F)(F)F)noc3C3CC3)C4)ccc2n1` [Example 82, 6-(2-((5-Cyclopropyl-3-(2-(trifluoromethyl)phenyl)isoxazol-4-yl)methyl)-7-azaspiro[3.5]nonan-7-yl)-N-(cyclopropylsulfonyl)-4-(trifluoromethyl)quinoline-2-carboxamide] it was 0.011 µM.

Still in this assay, the particulars now being: Gal4-hFXR reporter in HEK293 cells; relative to 8 μM GW-4064; read-out: FXR EC50.
For `O=C(O)c1ccc2cc(N3CCC4(CC3)CC(Cc3c(-c5c(Cl)cccc5Cl)noc3C3CC3)C4)ccc2n1` [Example 40], the EC50 was 0.051 µM.
Take `O=C(O)c1cc(C(F)(F)F)c2cc(N3CCC4(CC3)CC(Cc3c(-c5c(Cl)cccc5Cl)noc3C3CC3)C4)ccc2n1` [Example 41]: the EC50 came out at 0.013 µM.
The same measure, in the same setting: in the case of `O=C(O)C1(c2ccc(N3CCC4(CC3)CC(=Cc3c(-c5c(Cl)cccc5Cl)noc3C3CC3)C4)cc2)CCC1` [Example 42] it was 0.21 µM; in that of `Cc1cc2cc(N3CCC4(CC3)CC(=Cc3c(-c5c(Cl)cccc5Cl)noc3C3CC3)C4)ccc2nc1C(=O)O` [Example 43], 1.35 µM.
As for `O=C(O)c1ccc(CCN2CCC3(CC2)CC(=Cc2c(-c4c(Cl)cccc4Cl)noc2C2CC2)C3)cc1` [Example 44], the EC50 stood at 0.765 µM.
Still for that read-out and setting: in the case of `O=C(O)Cc1ccc(N2CCC3(CC2)CC(=Cc2c(-c4c(Cl)cccc4Cl)noc2C2CC2)C3)cc1` [Example 45] it was 0.32 µM.
On the same count and under the same terms, in the case of `O=C(O)C1(c2ccc(N3CCC4(CC3)CC(=Cc3c(-c5c(Cl)cccc5Cl)noc3C3CC3)C4)cc2)CC1` [Example 46] it was 0.391 µM; in that of `O=C(O)c1ccc2cc(N3CCC4(CC3)CC(=Cc3c(-c5c(Cl)cccc5Cl)noc3C3CC3)C4)ccc2c1` [Example 47], 0.053 µM.
For `N#Cc1ccc(N2CCC3(CC2)CC(=Cc2c(-c4c(Cl)cccc4Cl)noc2C2CC2)C3)cc1` [Example 48, 4-(2-((5-cyclopropyl-3-(2,6-dichlorophenyl)isoxazol-4-yl)methylene)-7-azaspiro[3.5]nonan-7-yl)benzonitrile], the EC50 came to 2.36 µM.
On the same count and under the same terms, the same measure for `N#Cc1cccc(N2CCC3(CC2)CC(=Cc2c(-c4c(Cl)cccc4Cl)noc2C2CC2)C3)c1` [Example 49]: 2.57 µM; for `Clc1cccc(Cl)c1-c1noc(C2CC2)c1C=C1CC2(CCN(c3cccc(-c4nn[nH]n4)c3)CC2)C1` [Example 51]: 1.08 µM; for `O=C(O)c1ccc(CN2CCC3(CC2)CC(=Cc2c(-c4c(Cl)cccc4Cl)noc2C2CC2)C3)cc1` [Example 52]: 4.32 µM.
Still for that read-out and setting: in the case of `Cn1nnc(-c2ccc(N3CCC4(CC3)CC(=Cc3c(-c5c(Cl)cccc5Cl)noc3C3CC3)C4)cc2)n1` [Example 53] it was 0.908 µM.
For the molecule `O=C(O)c1cc2ccc(N3CCC4(CC3)CC(=Cc3c(-c5c(Cl)cccc5Cl)noc3C3CC3)C4)cc2nn1` [Example 54], the EC50 amounted to 0.267 µM.
Take `Cc1cccc(Cl)c1-c1noc(C2CC2)c1C=C1CC2(CCN(c3ccc4cc(C(=O)O)ccc4c3)CC2)C1` [Example 55]: the EC50 came to 0.125 µM.
For the molecule `Cc1cccc(Cl)c1-c1noc(C2CC2)c1C=C1CC2(CCN(c3ccc4nc(C(=O)O)ccc4c3)CC2)C1` [Example 56], the EC50 was determined as 0.152 µM.
Same read-out and setting: the same measure for `COCCn1cc(C(=O)O)c2ccc(N3CCC4(CC3)CC(=Cc3c(-c5c(Cl)cccc5Cl)noc3C3CC3)C4)cc21` [Example 57]: 0.019 µM; for `Cc1cccc(Cl)c1-c1noc(C2CC2)c1C=C1CC2(CCN(c3ccc4nc(C(=O)O)cc(C(F)(F)F)c4c3)CC2)C1` [Example 58]: 0.01 µM; for `Cc1cccc(Cl)c1-c1noc(C2CC2)c1C=C1CC2(CCN(c3ccc4c(C(=O)O)cn(C)c4c3)CC2)C1` [Example 59]: 0.01 µM.
As to `Cc1cccc(Cl)c1-c1noc(C2CC2)c1C=C1CC2(CCN(c3nc4c(F)cc(C(=O)O)cc4s3)CC2)C1` [Example 60], the EC50 worked out at 0.144 µM.
Take `O=C(O)COc1ccc(N2CCC3(CC2)CC(=Cc2c(-c4c(Cl)cccc4Cl)noc2C2CC2)C3)cc1` [Example 61]: the EC50 was found to be 0.461 µM.
The same measure, in the same setting: the same measure for `Cn1cc(-c2nn[nH]n2)c2ccc(N3CCC4(CC3)CC(=Cc3c(-c5ccccc5C(F)(F)F)noc3C3CC3)C4)cc21` [Example 62]: 0.054 µM; for `Cc1cccc(Cl)c1-c1noc(C2CC2)c1C=C1CC2(CCN(S(=O)(=O)c3cccc(C(=O)O)c3)CC2)C1` [Example 63]: 0.661 µM.
Same read-out and setting: the same measure for `O=C(O)c1cccc(N2CCC3(CC2)CC(=Cc2c(-c4c(Cl)cccc4Cl)noc2C2CC2)C3)c1` [Example 64]: 0.37 µM; for `O=C(O)c1cc2ccc(N3CCC4(CC3)CC(Cc3c(-c5c(Cl)cccc5Cl)noc3C3CC3)C4)cc2nn1` [Example 65]: 0.204 µM.
Still for that read-out and setting: the same measure for `O=C(O)c1ccc(N2CCC3(CC2)CC(=Cc2c(-c4c(Cl)cccc4Cl)noc2C2CC2)C3)cc1` [Example 66]: 0.693 µM; for `COc1cc(C(=O)O)nc2ccc(N3CCC4(CC3)CC(Cc3c(-c5ccccc5C(F)(F)F)noc3C3CC3)C4)cc12` [Example 69]: 0.017 µM.
Consider `COc1cc(C(=O)O)nc2ccc(N3CCC4(CC3)CC(=Cc3c(-c5ccccc5OC(F)(F)F)noc3C3CC3)C4)cc12` [Example 70], for which the EC50 was found to be 0.065 µM.
For the molecule `COc1cc(C(=O)O)nc2ccc(N3CCC4(CC3)CC(Cc3c(-c5ccccc5OC(F)(F)F)noc3C3CC3)C4)cc12` [Example 71], the concentration for a half-maximal effect (EC50) came to 0.016 µM.
As for `COc1cc(C(=O)O)nc2ccc(N3CCC4(CC3)CC(=Cc3c(-c5ccccc5C(F)(F)F)noc3C3CC3)C4)cc12` [Example 72], the EC50 turned out to be 0.021 µM.
Same read-out and setting: in the case of `O=C(O)c1cc(C(F)(F)F)c2cc(N3CCC4(CC3)CC(=Cc3c(-c5c(Cl)cncc5Cl)noc3C3CC3)C4)ccc2n1` [Example 73] it was 0.018 µM.
Same read-out and setting: in the case of `Cc1nc(C(=O)O)c2ccc(N3CCC4(CC3)CC(=Cc3c(-c5ccccc5C(F)(F)F)noc3C3CC3)C4)cn12` [Example 74] it was 0.114 µM; in that of `Cc1nc(C(=O)O)c2ccc(N3CCC4(CC3)CC(Cc3c(-c5ccccc5C(F)(F)F)noc3C3CC3)C4)cn12` [Example 75], 1.99 µM.
On the same count and under the same terms, the same measure for `COc1cc(C(=O)O)nc2ccc(N3CCC4(CC3)CC(=Cc3c(-c5c(Cl)cncc5Cl)noc3C3CC3)C4)cc12` [Example 76]: 0.014 µM; for `O=C(O)c1cn(C(F)F)c2cc(N3CCC4(CC3)CC(=Cc3c(-c5c(Cl)cncc5Cl)noc3C3CC3)C4)ccc12` [Example 77]: 0.04 µM.
Turning to `Cc1cc(C(=O)O)nc2ccc(N3CCC4(CC3)CC(Cc3c(-c5ccccc5C(F)(F)F)noc3C3CC3)C4)cc12` [Example 78], the EC50 is 0.016 µM.
Regarding `O=C(O)c1cc(OC(F)F)c2cc(N3CCC4(CC3)CC(Cc3c(-c5ccccc5C(F)(F)F)noc3C3CC3)C4)ccc2n1` [Example 79], the EC50 is 0.002 µM.
`CC(C)Oc1cc(C(=O)O)nc2ccc(N3CCC4(CC3)CC(=Cc3c(-c5ccccc5OC(F)(F)F)noc3C3CC3)C4)cc12` [Example 80]: the EC50 was 0.002 µM.
The same measure, in the same setting: in the case of `O=C(O)c1cc(OC(F)F)c2cc(N3CCC4(CC3)CC(=Cc3c(-c5c(Cl)cncc5Cl)noc3C3CC3)C4)ccc2n1` [Example 81] it was 0.003 µM.
On the same count and under the same terms, the same measure for `CC(C)Oc1cc(C(=O)O)nc2ccc(N3CCC4(CC3)CC(=Cc3c(-c5ccccc5C(F)(F)F)noc3C3CC3)C4)cc12` [Example 83]: 0.005 µM; for `CC(C)Oc1cc(C(=O)O)nc2ccc(N3CCC4(CC3)CC(Cc3c(-c5ccccc5C(F)(F)F)noc3C3CC3)C4)cc12` [Example 84]: 0.019 µM.
